Test results as given in ChEMBL document CHEMBL1201862, “PubChem BioAssay data set” (2004).
The source made the active and inactive calls.

Tests used:
[1] = Luminescence Cell-Based Dose Response HTS to Identify Inhibitors of 5'UTR Stem-Loop Driven Prion Protein mRNA Translation in H4 Neuroglioblastoma Cells. [Related pubchem assays: 1827 (Project Summary), 1813 (Primary HTS)]; assay type: functional
[2] = miR-122 activators in hepatoma reporter cells, dose response, cell-based, Huh7 psiCHECK-miR122, Renilla luciferase, cherry-picked (AID 651956); assay type: functional;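 note: huh7 hepatoma cells stably carrying a psiCHECK-2 miR-122 sensor plasmid; renilla luciferase signal reporting endogenous miR-122 activity after 48 h compound exposure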
[3] = HEK293T cytotoxicity, dose response, cytotoxicity control for miR-122 modulator project, cell-based, inhibitor set, cherry-pick, set 2 (AID 720697); assay type: functional
[4] = tested on: Jurkat; assay: antigen receptor-induced NF-kB inhibitors, dose response, Jurkat, luciferase reporter, luminescence, B- and T-cell (AID 489004); assay type: functional, cell-based; details: Homo sapiens;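 note: NF-kB luciferase reporter Jurkat cells stimulated with PMA plus ionomycin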
[5] = inhibitors of SNCA 5'UTR-driven reporter translation, confirmation, H4 neuroglioma cells, luminescence (AID 1988); assay type: functional, cell-based
[6] = cytotoxicity in HEK-293T NF-kB-Luc cells, dose response, cytotoxicity control for B/T-cell NF-kB inhibitor project, cell-based, uHTS hits (AID 489019); assay type: functional;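 note: IC50 reflects cytotoxicity as loss of cell viability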
[7] = Luminescence Cell-Based Dose Retest to Confirm Inhibitors of Cancer Stem Cells. [Related pubchem assays (depositor defined):AID2717, AID2721]; assay type: functional; details: Homo sapiens
[8] = biological target: T1, Hexokinase (Trypanosoma brucei, UniProt Q38C41); assay: Confirmation assay for inhibitors of Trypanosoma brucei hexokinase 1-Analogue-first series. [Related pubchem assays (depositor defined):AID1430, AID1632, AID2516, AID2560, AID2579, AID2600, AID449725, AID492951]; assay type: functional
T1 sequence (Q38C41 whole entry): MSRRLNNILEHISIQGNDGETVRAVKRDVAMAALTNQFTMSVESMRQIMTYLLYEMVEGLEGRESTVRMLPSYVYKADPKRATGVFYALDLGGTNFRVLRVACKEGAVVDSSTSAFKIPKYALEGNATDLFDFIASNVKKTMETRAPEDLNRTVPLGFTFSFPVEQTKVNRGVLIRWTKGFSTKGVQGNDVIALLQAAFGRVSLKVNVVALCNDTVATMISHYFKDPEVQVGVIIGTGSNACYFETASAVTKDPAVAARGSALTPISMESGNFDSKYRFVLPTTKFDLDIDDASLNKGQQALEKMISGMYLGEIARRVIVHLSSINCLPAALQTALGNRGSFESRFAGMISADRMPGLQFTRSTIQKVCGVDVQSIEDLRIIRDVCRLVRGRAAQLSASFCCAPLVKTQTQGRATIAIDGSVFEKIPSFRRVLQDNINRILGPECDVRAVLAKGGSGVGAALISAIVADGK

[9] = Intein inhibitors as potential Tuberculosis drugs, a cytotoxicity screen. [Related pubchem assays (depositor defined):AID2221, AID2223, AID434968, AID435010, AID449749, AID449750, AID489010]; assay type: functional
[10] = biological target: T2, Protein RecA (Mycobacterium tuberculosis, UniProt P9WHJ3); assay: Fluorescence Cell-Free Homogeneous Dose Retest to Identify Inhibitors of RecA-Intein Splicing Activity. [Related pubchem assays (depositor defined):AID2097, AID2223, AID489010, AID492950]; assay type: functional
T2 sequence (P9WHJ3 whole entry): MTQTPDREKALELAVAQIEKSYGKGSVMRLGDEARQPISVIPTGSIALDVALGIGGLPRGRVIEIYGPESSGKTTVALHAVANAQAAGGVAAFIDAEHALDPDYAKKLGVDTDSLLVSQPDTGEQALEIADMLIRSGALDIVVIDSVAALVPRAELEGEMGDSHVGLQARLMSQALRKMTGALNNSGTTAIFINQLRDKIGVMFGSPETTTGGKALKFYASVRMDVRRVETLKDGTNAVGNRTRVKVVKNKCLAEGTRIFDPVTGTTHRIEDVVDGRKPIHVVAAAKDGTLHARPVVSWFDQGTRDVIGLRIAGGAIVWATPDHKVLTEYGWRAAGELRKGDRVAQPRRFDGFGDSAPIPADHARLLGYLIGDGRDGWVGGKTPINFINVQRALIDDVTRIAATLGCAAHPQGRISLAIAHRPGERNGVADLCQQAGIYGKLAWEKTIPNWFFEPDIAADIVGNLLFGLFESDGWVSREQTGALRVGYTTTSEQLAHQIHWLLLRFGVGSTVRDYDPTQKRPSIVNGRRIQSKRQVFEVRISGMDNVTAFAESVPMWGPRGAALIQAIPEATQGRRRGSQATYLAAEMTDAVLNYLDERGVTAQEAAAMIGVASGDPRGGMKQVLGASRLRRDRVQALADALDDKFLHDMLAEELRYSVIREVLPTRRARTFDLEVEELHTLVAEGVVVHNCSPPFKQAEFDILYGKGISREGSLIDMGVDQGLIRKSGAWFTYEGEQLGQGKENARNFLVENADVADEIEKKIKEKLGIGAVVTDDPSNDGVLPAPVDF

[11] = biological target: T3, Replicative DNA helicase DnaB (Mycobacterium tuberculosis, UniProt P9WMR3); assay: DnaB intein splicing inhibitors, dose response, biochemical, cell-free fluorescence (AID 449749); assay type: functional
T3 sequence (P9WMR3 whole entry): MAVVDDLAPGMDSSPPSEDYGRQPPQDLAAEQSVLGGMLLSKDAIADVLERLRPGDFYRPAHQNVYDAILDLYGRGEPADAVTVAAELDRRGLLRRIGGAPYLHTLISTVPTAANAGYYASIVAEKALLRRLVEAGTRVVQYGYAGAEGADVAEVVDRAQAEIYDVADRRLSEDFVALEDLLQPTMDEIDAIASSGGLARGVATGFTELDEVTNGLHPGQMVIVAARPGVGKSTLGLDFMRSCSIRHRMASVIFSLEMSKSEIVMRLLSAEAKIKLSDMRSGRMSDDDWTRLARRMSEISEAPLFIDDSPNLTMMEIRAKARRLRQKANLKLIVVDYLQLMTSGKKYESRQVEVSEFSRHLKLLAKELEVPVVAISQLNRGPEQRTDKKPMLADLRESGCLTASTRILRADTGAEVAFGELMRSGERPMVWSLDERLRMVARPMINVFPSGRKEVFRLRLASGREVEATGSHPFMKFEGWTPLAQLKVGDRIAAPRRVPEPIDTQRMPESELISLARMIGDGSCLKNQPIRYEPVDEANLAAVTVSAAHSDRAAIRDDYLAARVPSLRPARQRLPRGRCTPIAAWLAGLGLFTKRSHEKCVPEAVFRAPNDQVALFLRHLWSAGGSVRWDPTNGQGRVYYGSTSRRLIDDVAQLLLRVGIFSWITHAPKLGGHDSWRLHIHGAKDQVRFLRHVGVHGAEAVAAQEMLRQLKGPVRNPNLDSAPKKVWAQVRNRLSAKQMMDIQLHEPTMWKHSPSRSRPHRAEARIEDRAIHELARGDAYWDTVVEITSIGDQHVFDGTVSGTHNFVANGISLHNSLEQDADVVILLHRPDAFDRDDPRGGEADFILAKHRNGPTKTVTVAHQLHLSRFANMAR

[12] = cytotoxicity in HPDE-C7 cells, cell-based, fluorescence, HTS (AID 430); assay type: functional; details: Homo sapiens
[13] = biological target: T4, Short transient receptor potential channel 4 (Mus musculus, UniProt Q9QUQ5); assay: mouse TRPC4 channel activators, dose response, cell-based, HEK293 TRPC4/mu-opioid, Fluo-4 calcium (AID 434937); assay type: functional
T4 sequence (Q9QUQ5 whole entry): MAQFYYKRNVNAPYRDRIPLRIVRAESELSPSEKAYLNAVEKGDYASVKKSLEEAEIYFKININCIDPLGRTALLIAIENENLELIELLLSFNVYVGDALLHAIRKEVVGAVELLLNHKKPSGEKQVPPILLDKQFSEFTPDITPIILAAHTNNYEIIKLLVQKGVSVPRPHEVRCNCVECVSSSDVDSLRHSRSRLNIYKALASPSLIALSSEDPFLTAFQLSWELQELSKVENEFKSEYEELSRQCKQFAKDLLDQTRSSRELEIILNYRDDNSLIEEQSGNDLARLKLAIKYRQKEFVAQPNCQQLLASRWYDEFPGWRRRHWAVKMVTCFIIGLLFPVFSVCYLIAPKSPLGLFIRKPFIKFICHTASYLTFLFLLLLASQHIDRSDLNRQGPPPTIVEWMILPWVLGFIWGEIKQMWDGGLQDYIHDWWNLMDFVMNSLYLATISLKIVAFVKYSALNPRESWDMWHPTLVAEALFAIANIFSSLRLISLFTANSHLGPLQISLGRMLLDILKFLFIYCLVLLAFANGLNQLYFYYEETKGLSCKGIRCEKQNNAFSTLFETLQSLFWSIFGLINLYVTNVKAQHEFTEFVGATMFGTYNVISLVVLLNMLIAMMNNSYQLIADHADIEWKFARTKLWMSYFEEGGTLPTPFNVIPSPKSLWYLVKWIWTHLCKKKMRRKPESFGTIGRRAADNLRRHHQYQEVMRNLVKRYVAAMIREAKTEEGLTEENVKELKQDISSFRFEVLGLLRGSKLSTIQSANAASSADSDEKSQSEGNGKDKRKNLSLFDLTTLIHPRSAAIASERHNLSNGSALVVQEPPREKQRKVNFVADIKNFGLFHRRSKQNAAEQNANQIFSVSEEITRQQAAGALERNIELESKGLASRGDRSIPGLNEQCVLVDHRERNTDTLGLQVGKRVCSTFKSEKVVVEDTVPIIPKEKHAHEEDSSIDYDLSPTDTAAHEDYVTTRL

[14] = cytotoxicity in KRAS-transformed pancreatic duct cells, primary screen, cell-based, fluorescence, HTS (AID 431); assay type: functional; details: Homo sapiens;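 note: cell line used: HPDE-C7K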
[15] = biological target: T4, Short transient receptor potential channel 4; assay: mouse TRPC4 channel inhibitors, dose response, cell-based, HEK293 TRPC4/mu-opioid, Fluo-4 calcium (AID 434942); assay type: functional;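 note: potency of inhibitors blocking the TRPC4 calcium response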
[16] = biological target: Trypsin (Sus scrofa, UniProt P00761); assay: porcine trypsin inhibitors, dose response, selectivity assay for Rce1 protease inhibitor project, biochemical, quenched peptide fluorescence, cherry-pick (AID 488789)
Sequence of Trypsin (P00761 whole entry): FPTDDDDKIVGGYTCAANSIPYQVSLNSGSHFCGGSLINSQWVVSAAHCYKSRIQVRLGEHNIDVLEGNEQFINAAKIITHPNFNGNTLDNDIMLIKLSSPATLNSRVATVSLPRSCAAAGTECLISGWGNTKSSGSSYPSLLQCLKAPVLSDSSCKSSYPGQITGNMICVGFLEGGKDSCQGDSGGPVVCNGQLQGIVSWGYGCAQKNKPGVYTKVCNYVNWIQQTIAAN

[17] = biological target: T5, CAAX prenyl protease 2 (Saccharomyces cerevisiae S288c, UniProt Q03530); assay type: biochemical
T5 sequence (Q03530 whole entry): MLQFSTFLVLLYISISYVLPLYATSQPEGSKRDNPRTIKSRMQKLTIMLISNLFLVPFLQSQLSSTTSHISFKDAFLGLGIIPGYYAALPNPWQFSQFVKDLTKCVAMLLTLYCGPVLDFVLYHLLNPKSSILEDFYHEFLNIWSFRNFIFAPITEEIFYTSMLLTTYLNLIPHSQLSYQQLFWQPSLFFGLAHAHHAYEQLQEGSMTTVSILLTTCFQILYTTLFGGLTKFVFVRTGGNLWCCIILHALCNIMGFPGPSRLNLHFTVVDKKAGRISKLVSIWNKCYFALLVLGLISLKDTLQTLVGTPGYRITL

[18] = biological target: T6, CAAX prenyl protease 2 (Homo sapiens, UniProt Q9Y256); assay: human Rce1 protease inhibitors, dose response, biochemical, yeast membranes, quenched-peptide fluorescence, cherry-pick (AID 588849)
T6 sequence (Q9Y256 whole entry): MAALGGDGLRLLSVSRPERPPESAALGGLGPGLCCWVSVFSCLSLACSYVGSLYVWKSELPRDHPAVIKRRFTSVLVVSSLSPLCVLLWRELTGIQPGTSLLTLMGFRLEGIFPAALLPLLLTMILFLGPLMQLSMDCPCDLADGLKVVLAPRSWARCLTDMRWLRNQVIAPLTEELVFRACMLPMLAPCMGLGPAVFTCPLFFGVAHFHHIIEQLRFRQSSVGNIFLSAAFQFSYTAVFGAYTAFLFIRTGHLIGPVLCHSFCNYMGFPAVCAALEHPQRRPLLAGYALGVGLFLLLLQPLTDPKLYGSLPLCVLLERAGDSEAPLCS

[19] = biological target: T7, Adenosylmethionine-8-amino-7-oxononanoate aminotransferase (Mycobacterium tuberculosis, UniProt P9WQ81); assay: Mycobacterium tuberculosis BioA enzyme inhibitor Measured in Biochemical System Using Plate Reader - 2163-02_Inhibitor_Dose_CherryPick_Activity.; assay type: functional, Mycobacterium tuberculosis UT205
T7 sequence (P9WQ81 whole entry): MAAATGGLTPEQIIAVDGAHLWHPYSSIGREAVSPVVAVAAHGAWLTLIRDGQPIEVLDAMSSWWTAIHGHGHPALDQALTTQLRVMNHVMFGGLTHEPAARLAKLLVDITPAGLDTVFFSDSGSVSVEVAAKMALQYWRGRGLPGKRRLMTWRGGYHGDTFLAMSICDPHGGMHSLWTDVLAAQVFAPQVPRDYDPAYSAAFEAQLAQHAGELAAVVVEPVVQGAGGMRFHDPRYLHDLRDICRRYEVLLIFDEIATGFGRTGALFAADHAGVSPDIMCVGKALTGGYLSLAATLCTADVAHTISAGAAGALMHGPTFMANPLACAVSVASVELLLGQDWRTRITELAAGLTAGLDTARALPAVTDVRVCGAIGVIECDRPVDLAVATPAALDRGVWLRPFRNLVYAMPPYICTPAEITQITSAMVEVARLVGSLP

[20] = NIH-3T3 fibroblast cytotoxicity, dose response, cytotoxicity control, cell-based, fluorescence, Alamar Blue, secondary assay (AID 2327); assay type: functional;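 note: NIH-3T3 mouse fibroblasts cultured with fluconazole at 8 µg/mL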
[21] = C. albicans growth with fluconazole, confirmation, fluorescence, retest (AID 2467); assay type: functional, cell-based
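Throughout, for CC50: cells exposed to compound for 72 hours before luminescence readout.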

Nc1nc(Cl)nc2c1ncn2[C@H]1C[C@H](O)[C@@H](CO)O1 [CLADRIBINE]
EC50 [1]: 4.8 µM (active)
AC50 [2]: 50.9 µM (active)
AC50 [3]: 9.07 µM (active)
IC50 [4]: 0.66 µM (active)
EC50 [5]: 2.96 µM (active)
IC50 [6]: > 80 µM (inactive)
AC50 [7]: 0.24 µM (active)

COc1cc(C(=O)Nc2cc(Cl)ccc2C(=O)O)cc(OC)c1OC
IC50 [8]: > 25 µM (inactive)

COC(=O)c1sc(-c2ccc(Cl)cc2)cc1NC(=O)/C=C/C(=O)O
CC50 [9]: 24.2 µM (active)
EC50 [10]: 2.44 µM (active)
AC50 [11]: 4.02 µM (active)

COc1ccc(C(=O)Nc2cc(Cl)c(Br)cc2C(=O)O)cc1
IC50 [8]: 4.59 µM (active)

CCCCN(CC)CCCNC(=O)Cn1nc(Cc2ccncc2)c2ccccc2c1=O
EC50 [12]: > 20 µM (not active)
EC50 [13]: 0.168 µM (active)
EC50 [14]: > 20 µM (not active)

O=C(Cn1sc2ccccc2c1=O)Nc1ccccc1F
IC50 [8]: 5.8 µM (active)

OCC1(CC2CCCCO2)CCN(Cc2nc3ccccc3[nH]2)CC1 (stereo unspecified)
EC50 [13]: 5.31 µM (active)
EC50 [15]: 3.35 µM (active)

O=C(O)c1ccccc1NCCO
AC50 [16]: 8.2 µM (active)
AC50 [17]: 16.1 µM (active)
AC50 [18]: 5.81 µM (active)

O=[N+]([O-])c1ccc(C[n+]2c(-c3ccccc3)cc(-c3ccccc3)cc2-c2ccccc2)cc1.[O-][Cl+3]([O-])([O-])[O-]
AC50 [19]: 4.55 µM (active)
AC50 [17]: 81.6 µM (active)
EC50 [20]: 23.7 µM (active)
AC50 [18]: 68.4 µM (active)
EC50 [21]: 2.75 µM (active)
